One test has as its target T1, human orexin-2 receptor (Homo sapiens, UniProt O43614).
T1 construct: expressed in transfected cells; host or cells: Chinese hamster ovary (CHO) cells
T1 sequence (O43614 1-444): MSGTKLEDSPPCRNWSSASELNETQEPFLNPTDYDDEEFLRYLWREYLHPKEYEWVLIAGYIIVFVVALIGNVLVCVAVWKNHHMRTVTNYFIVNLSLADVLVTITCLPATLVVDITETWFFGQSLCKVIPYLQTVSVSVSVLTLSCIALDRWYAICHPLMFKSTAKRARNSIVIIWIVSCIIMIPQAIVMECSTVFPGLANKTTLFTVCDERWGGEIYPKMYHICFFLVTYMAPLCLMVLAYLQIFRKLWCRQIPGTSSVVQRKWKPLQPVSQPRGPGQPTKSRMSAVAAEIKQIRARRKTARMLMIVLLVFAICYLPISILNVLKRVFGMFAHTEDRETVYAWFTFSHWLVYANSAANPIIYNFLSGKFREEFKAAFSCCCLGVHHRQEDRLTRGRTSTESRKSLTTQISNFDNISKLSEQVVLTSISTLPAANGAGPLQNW
The test is described as follows: FLIPR calcium assay of orexin receptor antagonistic activity, CHO cells expressing human orexin-2 receptor. It is filed as cell-based. The conditions noted are these: read-out: OX2 IC50. On the procedure:
(§1) The orexin receptor antagonistic activity of the compounds of formula (I) is determined in accordance with the following experimental method.
(§2) Chinese hamster ovary (CHO) cells expressing the human orexin-1 receptor and the human orexin-2 receptor, respectively, are grown in culture medium (Ham F-12 with L-Glutamine) containing 300 μg/ml G418, […] penicillin, 100 μg/ml streptomycin and 10% heat inactivated fetal calf serum (FCS). The cells are seeded at 20′000 cells/well into 384-well black clear bottom sterile plates (Greiner). The seeded plates are incubated overnight at 37° C. in 5% CO2.
(§3) Human orexin-A as an agonist is prepared as 1 mM stock solution in MeOH:water (1:1), diluted in HBSS containing 0.1% bovine serum albumin (BSA), NaHCO3: 0.375 g/l and 20 mM HEPES for use in the assay at a final concentration of 3 nM.
(§4) Antagonists are prepared as 10 mM stock solution in DMSO, then diluted in 384-well plates using DMSO followed by a transfer of the dilutions into in HBSS containing 0.1% bovine serum albumin (BSA), NaHCO3: 0.375 g/l and 20 mM HEPES. On the day of the assay, 50 μl of staining buffer (HBSS containing 1% FCS, 20 mM HEPES, NaHCO3: 0.375 g/l, 5 mM probenecid (Sigma) and 3 μM of the fluorescent calcium indicator fluo-4 AM (1 mM stock solution in DMSO, containing 10% pluronic) is added to each well. The 384-well cell-plates are incubated for 50 min at 37° C. in 5% CO2 followed by equilibration at rt for 30-120 min before measurement.
(§5) Within the Fluorescent Imaging Plate Reader (FLIPR Tetra, Molecular Devices), antagonists are added to the plate in a volume of 10 μl/well, incubated for 10 min and finally […] of agonist is added. Fluorescence is measured for each well at 1 second intervals, and the height of each fluorescence peak is compared to the height of the fluorescence peak induced by 3 nM orexin-A with vehicle in place of antagonist. For each antagonist, the IC50 value (the concentration of compound needed to inhibit 50% of the agonistic response) is determined and may be normalized using the obtained IC50 value of a on-plate reference compound (normalized values in Table 1 are indicated by an asterisk *). Optimized conditions were achieved by adjustment of pipetting speed and cell splitting regime. The calculated IC50 values of the compounds may fluctuate depending on the daily cellular assay performance. Fluctuations of this kind are known to those skilled in the art.

The target of a further test is T2, human orexin-1 receptor (Homo sapiens, UniProt O43613).
T2 construct: expressed in transfected cells; host or cells: Chinese hamster ovary (CHO) cells
T2 sequence (O43613 1-425): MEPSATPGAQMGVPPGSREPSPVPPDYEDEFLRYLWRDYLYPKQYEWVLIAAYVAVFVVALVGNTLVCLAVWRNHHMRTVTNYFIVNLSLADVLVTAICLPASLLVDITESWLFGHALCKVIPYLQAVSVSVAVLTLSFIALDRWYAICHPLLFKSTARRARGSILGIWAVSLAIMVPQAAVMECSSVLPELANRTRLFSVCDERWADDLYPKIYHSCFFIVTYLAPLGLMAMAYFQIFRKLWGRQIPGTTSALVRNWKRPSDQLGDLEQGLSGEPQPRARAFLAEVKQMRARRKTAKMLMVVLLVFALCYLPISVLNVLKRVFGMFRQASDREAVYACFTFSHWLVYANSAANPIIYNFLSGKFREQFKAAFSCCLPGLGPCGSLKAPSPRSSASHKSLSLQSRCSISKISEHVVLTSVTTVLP
The test is described as follows: FLIPR calcium assay of orexin receptor antagonistic activity, CHO cells expressing human orexin-1 receptor. It counts as cell-based. The conditions noted are these: read-out: OX1 IC50. How it is done: as §1, §2, §3, §4, §5

Test [1] relates to rat model of post-traumatic stress disorder. The conditions noted are these: cited from earlier work.
In another test the test system is rat. The conditions noted are these: cited from earlier work.
A further test has as its system rat model. The conditions noted are these: cited from earlier work.
The mark [2] stands for this setting: 3 nM orexin-A as agonist, not normalized, *2/*3 = geometric mean of n = 2/3 values.

Broadly, the IC50 is the midpoint of a concentration-inhibition curve.

Like-named read-outs stand apart in the source and are kept apart here.

`O=C(NCC1SCCN1C(=O)c1nc(C2CC2)sc1-c1cccc(F)c1)c1cccc2c1CCO2` (racemic) [Example 116, rac-2,3-Dihydro-benzofuran-4-carboxylic acid {3-[2-cyclopropyl-5-(3-fluoro-phenyl)-thiazole-4-carbonyl]-thiazolidin-2-ylmethyl}-amide]: the IC50 on human orexin-2 receptor (setting [2]) was found to be 5 nM; on human orexin-1 receptor (setting [2]), 2 nM.

Regarding `Cc1nc(C(=O)N2CCSC2CNC(=O)c2cccc3ncsc23)c(-c2ccc(C)c(F)c2)s1` (racemic) [Example 120, rac-Benzothiazole-7-carboxylic acid {3-[5-(3-fluoro-4-methyl-phenyl)-2-methyl-thiazole-4-carbonyl]-thiazolidin-2-ylmethyl}-amide], the IC50 at human orexin-2 receptor (setting [2]) is 7 nM; at human orexin-1 receptor (setting [2]), 8 nM.

`Cc1nc(C(=O)N2CCSC2CNC(=O)c2nn(C)c3ccccc23)c(-c2ccc(C)c(F)c2F)s1` (racemic) [Example 126, rac-1-Methyl-1H-indazole-3-carboxylic acid {3-[5-(2,3-difluoro-4-methyl-phenyl)-2-methyl-thiazole-4-carbonyl]-thiazolidin-2-ylmethyl}-amide]: the IC50 on human orexin-2 receptor (setting [2]) and at human orexin-1 receptor (setting [2]) was 11 nM in each case.

Consider `Cc1cccc(-c2sc(N(C)C)nc2C(=O)N2CCSC2CNC(=O)c2cccc3c2CCO3)c1` (racemic) [Example 128, rac-2,3-Dihydro-benzofuran-4-carboxylic acid [3-(2-dimethylamino-5-m-tolyl-thiazole-4-carbonyl)-thiazolidin-2-ylmethyl]-amide], for which the 50% inhibitory concentration (IC50) at human orexin-2 receptor (setting [2]) came out at 14 nM; on human orexin-1 receptor (setting [2]), 12 nM.

For `CCc1onc(C)c1C(=O)NCC1SCCN1C(=O)c1nc(C)sc1-c1cccc(C)c1` (racemic) [Example 140, rac-5-Ethyl-3-methyl-isoxazole-4-carboxylic acid [3-(2-methyl-5-m-tolyl-thiazole-4-carbonyl)-thiazolidin-2-ylmethyl]-amide], the IC50 on human orexin-2 receptor and on human orexin-1 receptor was 9 nM in each case.

On to `Cc1cccc(-c2sc(C)nc2C(=O)N2CCSC2CNC(=O)c2cnn(C)c2C(F)(F)F)c1` (racemic) [Example 142, rac-1-Methyl-5-trifluoromethyl-1H-pyrazole-4-carboxylic acid [3-(2-methyl-5-m-tolyl-thiazole-4-carbonyl)-thiazolidin-2-ylmethyl]-amide], for which the IC50 at human orexin-2 receptor came out at 12 nM; on human orexin-1 receptor, 5 nM.

For `COc1ncccc1C(=O)NCC1SCCN1C(=O)c1nc(C)sc1-c1cccc(C)c1` (racemic) [Example 160, rac-2-Methoxy-N-[3-(2-methyl-5-m-tolyl-thiazole-4-carbonyl)-thiazolidin-2-ylmethyl]-nicotinamide], the results for the IC50 at human orexin-2 receptor and at human orexin-1 receptor were 15 nM and 4 nM, respectively.

In the case of `Cc1cccc(-c2sc(C)nc2C(=O)N2CCSC2CNC(=O)c2cccc(C(F)(F)F)n2)c1` (racemic) [Example 162, rac-6-Trifluoromethyl-pyridine-2-carboxylic acid [3-(2-methyl-5-m-tolyl-thiazole-4-carbonyl)-thiazolidin-2-ylmethyl]-amide], the values for the half-maximal inhibitory concentration (IC50) at human orexin-2 receptor and on human orexin-1 receptor were 41 nM and 5 nM, respectively.

Turning to `Cc1cccc(-c2sc(C)nc2C(=O)N2CCSC2CNC(=O)c2nc(C)oc2C)c1` (racemic) [Example 163, rac-2,5-Dimethyl-oxazole-4-carboxylic acid [3-(2-methyl-5-m-tolyl-thiazole-4-carbonyl)-thiazolidin-2-ylmethyl]-amide], the IC50 is 8 nM at human orexin-2 receptor and 5 nM on human orexin-1 receptor.

In the case of `Cc1cccc(-c2sc(C)nc2C(=O)N2CCSC2CNC(=O)c2sc(C)nc2C)c1` (racemic) [Example 165, rac-2,4-Dimethyl-thiazole-5-carboxylic acid [3-(2-methyl-5-m-tolyl-thiazole-4-carbonyl)-thiazolidin-2-ylmethyl]-amide], the IC50 stood at 5 nM at human orexin-2 receptor and 6 nM at human orexin-1 receptor.

Turning to `CNC(=O)[C@@H](c1ccccc1)N1CCc2cc(OC)c(OC)cc2[C@@H]1CCc1ccc(C(F)(F)F)cc1` [(2R)-2-{(1S)-6,7-dimethoxy-1-[2-(4-trifluoromethyl-phenyl)-ethyl]-3,4-dihydro-1H-isoquinolin-2-yl}-N-methyl-2-phenyl-acetamide], the “activity in model of post-traumatic stress disorder” value in test [1] is reported as “active”. Further, in the test with rat, the “alertness (active wake and locomotion)” value is listed as “decrease alertness”; the “time spent in REM and NREM sleep” value is “dose-dependently increase the time spent in both REM and NREM sleep”. The memory function result in the test with rat model is given as “enhance memory function”.

The record behind these values is patent US20110105491A1, “THIAZOLIDINE COMPOUNDS AS OREXIN RECEPTOR ANTAGONISTS” (priority 2008, published 2011).
